Measured values published in ChEMBL document CHEMBL1201862, “PubChem BioAssay data set” (2004).
The source made the active and inactive calls.

How the values were obtained:
[1] = biological target: Trypsin (Sus scrofa, UniProt P00761); assay: porcine trypsin inhibitors, dose response, selectivity assay for Rce1 protease inhibitor project, biochemical, quenched peptide fluorescence, cherry-pick (AID 488789)
[2] = biological target: T1, CAAX prenyl protease 2 (Saccharomyces cerevisiae S288c, UniProt Q03530); format: biochemical
T1 sequence (Q03530 whole entry): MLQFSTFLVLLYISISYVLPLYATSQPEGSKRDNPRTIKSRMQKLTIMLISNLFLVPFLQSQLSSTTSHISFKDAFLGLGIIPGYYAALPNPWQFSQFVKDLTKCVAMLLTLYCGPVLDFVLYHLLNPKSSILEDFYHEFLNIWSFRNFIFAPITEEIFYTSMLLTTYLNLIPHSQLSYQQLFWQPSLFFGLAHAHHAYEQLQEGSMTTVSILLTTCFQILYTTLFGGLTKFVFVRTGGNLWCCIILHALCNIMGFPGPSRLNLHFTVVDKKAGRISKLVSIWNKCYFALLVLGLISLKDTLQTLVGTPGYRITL

[3] = biological target: CAAX prenyl protease 1 (Saccharomyces cerevisiae S288c, UniProt P47154); assay: Ste24 protease inhibitors, dose response, biochemical, S. cerevisiae, plate reader, cherry-pick (AID 488815)
[4] = biological target: CAAX prenyl protease 2 (Homo sapiens, UniProt Q9Y256); assay: human Rce1 protease inhibitors, dose response, biochemical, yeast membranes, quenched-peptide fluorescence, cherry-pick (AID 588849)
[5] = insulin promoter down-regulators in MIN6 cells, imaging, high-content screening, mouse beta cells (AID 1628); format: functional
[6] = cytotoxicity in MIN6 insulinoma cells, dose response, cytotoxicity control, cell-based, mouse insulinoma (AID 2122); format: functional;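 note: confirmatory high-throughput counterscreen run to flag cytotoxic compounds; mouse MIN-6 beta cells carrying an insulin promoter eGFP reporter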
[7] = inhibitors of intracellular T. cruzi replication, confirmation, NIH3T3 host cells, beta-gal luminescence (AID 2044); format: functional, cell-based;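 note: intracellular parasites grown in NIH/3T3 mouse fibroblasts as host cells; luminescent beta-galactosidase reporter signal from transgenic T. cruzi replicating inside host cells; inhibitors lower the luminescence signal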
[8] = cytotoxicity toward NIH3T3 fibroblasts, dose response, counter-screen, cell-based, ATP luminescence, mouse fibroblasts (AID 2010); format: functional;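 note: cells exposed to compound for about 90 hours before reading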
[9] = Shn3 3'UTR reporter inhibitors, dose response, cell-based, Clone20 osteoblasts, firefly luciferase, cherry-picked (AID 624132); format: functional;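 note: firefly luciferase luminescence from reporter carrying the Shn3 3'UTR in osteoblasts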
[10] = HepG2 cell cytotoxicity, dose response, cytotoxicity control for Shn3 inhibitor project, CellTiter-Glo, cherry-picked (AID 624134); format: functional, cell-based
[11] = control 3'UTR Renilla luciferase suppression, dose response, counter-screen for Shn3 inhibitor project, cell-based, Clone20-Shn3RL, cherry-picked (AID 624133); format: functional
[12] = inhibitors of HIV Env-driven cell fusion, dose response, cherry-pick (AID 652057); format: functional, cell-based
[13] = CEM21 lymphoblast cell cytotoxicity, dose response, cytotoxicity control for viral fusion inhibitor project, CellTiter-Glo luminescence, cherry-picked (AID 652042); format: functional, cell-based;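 note: potency for signal decrease meaning cytotoxicity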
[14] = ZM109 Env clade C HIV-1 fusion inhibitors, dose response, HeLa effector, CEM target cells, luciferase, cherry-pick (AID 652058); format: functional, cell-based
[15] = off-target signal loss in HeLa-CEM21 co-culture – HeLa F-luc CTL cells, cherry-picked, counter-screen for HIV-1 Env fusion inhibitor project, dose response (AID 652040); format: functional, cell-based;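 note: potency for signal decrease marking cytotoxic or nonspecific inhibition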
[16] = biological target: DNA dC->dU-editing enzyme APOBEC-3G (Homo sapiens, UniProt Q9HC16); assay: APOBEC3G deaminase inhibitors, SAR follow-up, biochemical, fluorescence, single-stranded DNA substrate (AID 602136); format: functional; settings: read-out: IC50_Mean
[17] = biological target: DNA dC->dU-editing enzyme APOBEC-3A (Homo sapiens, UniProt P31941); assay: SAR analysis of small molecule inhibitors of APOBEC3A DNA Deaminase via a fluorescence-based single-stranded DNA deaminase assay.; format: functional; settings: read-out: IC50_Mean
[18] = system: HEK293; assay: NOD1 signaling inhibitors, primary screen, cell-based, luminescence, uHTS (AID 1578); format: functional; settings: Homo sapiens
[19] = system: HEK293; assay: cells; format: functional, cell-based; settings: Homo sapiens
[20] = system: HEK293; assay: cells; format: functional, cell-based; settings: Homo sapiens; remark: listed apart in the source
[21] = system: HEK293; assay: NOD2 signaling inhibitors in MDP-stimulated cells, cell-based, uHTS, luminescence (AID 2001); format: functional; settings: Homo sapiens
[22] = biological target: Nonstructural protein 1 (Influenza A virus, UniProt Q194T2); format: functional, Influenza A virus (A/California/07/2009(H1N1))
Sequence of Nonstructural protein 1 (Q194T2 whole entry): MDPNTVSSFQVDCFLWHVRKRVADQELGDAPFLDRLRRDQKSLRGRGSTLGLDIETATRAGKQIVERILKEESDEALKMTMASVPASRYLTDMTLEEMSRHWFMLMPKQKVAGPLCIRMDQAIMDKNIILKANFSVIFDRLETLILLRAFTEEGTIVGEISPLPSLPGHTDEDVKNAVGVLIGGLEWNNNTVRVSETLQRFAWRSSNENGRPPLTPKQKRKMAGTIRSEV

Sequence of CAAX prenyl protease 1 (P47154 whole entry): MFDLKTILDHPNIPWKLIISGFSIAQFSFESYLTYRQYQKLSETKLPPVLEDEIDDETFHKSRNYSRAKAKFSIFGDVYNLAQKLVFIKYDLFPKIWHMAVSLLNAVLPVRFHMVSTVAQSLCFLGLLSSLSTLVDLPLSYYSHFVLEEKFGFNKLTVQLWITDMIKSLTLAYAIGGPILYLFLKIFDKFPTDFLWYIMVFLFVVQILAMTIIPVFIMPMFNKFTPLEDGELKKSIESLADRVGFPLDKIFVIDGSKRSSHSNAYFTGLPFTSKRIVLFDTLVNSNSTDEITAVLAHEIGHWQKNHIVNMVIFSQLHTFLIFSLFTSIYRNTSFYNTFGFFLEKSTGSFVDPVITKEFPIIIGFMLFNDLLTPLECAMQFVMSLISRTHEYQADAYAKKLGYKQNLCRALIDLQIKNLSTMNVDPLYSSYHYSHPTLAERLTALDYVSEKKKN
Sequence of DNA dC->dU-editing enzyme APOBEC-3G (Q9HC16 whole entry): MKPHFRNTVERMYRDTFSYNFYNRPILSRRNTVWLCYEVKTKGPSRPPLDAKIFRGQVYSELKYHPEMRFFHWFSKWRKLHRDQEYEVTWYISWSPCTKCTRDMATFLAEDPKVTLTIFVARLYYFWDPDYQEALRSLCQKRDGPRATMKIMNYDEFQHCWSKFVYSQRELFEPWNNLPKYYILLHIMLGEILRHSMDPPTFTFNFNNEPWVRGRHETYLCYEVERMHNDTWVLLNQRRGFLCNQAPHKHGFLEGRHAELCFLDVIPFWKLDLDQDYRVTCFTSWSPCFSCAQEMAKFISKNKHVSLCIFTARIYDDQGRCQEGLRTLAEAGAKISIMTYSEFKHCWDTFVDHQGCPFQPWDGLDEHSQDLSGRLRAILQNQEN
Sequence of DNA dC->dU-editing enzyme APOBEC-3A (P31941 whole entry): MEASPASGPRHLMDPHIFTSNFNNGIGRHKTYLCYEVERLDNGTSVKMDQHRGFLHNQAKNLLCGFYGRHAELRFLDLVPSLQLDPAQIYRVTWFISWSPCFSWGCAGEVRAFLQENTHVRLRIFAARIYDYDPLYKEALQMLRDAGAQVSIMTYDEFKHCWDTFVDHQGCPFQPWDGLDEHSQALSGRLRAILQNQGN
Sequence of CAAX prenyl protease 2 (Homo sapiens, UniProt Q9Y256) (Q9Y256 whole entry): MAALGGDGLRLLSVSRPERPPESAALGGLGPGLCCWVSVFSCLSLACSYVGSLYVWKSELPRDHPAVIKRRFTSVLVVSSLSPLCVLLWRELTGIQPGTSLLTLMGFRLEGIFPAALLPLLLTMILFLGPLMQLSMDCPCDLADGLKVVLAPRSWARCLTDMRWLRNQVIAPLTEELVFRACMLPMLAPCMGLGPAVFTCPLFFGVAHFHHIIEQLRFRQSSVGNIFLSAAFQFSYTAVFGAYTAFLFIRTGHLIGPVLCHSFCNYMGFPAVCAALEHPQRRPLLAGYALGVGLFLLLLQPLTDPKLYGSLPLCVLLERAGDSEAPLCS
Sequence of Trypsin (P00761 whole entry): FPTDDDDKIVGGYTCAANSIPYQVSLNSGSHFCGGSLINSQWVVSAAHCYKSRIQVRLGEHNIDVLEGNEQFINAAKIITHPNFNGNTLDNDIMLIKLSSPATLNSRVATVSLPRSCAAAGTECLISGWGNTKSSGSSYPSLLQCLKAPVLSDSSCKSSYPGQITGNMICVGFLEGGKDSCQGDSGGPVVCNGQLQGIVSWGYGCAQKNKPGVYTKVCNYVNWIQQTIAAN

Q: With `COC(=O)c1sc2cnccc2c1N` as the molecule, how does the AC50 [1] read?
A: The AC50 was 9.63 µM (active).

Q: What about the AC50 [2] of the same molecule?
A: Its AC50 is 14 µM (active).

Q: And the AC50 [3]?
A: The AC50 was 4.39 µM (active).

Q: What about the AC50 [4] of the same molecule?
A: The AC50 was 2.57 µM (active).

Q: For `COc1ccc(Nc2cc(C)nc(NCc3ccccc3)n2)cc1`, which IC50 [5] is on record?
A: The IC50 was 1.14 µM (active).

Q: What about the IC50 [6] of the same molecule?
A: Its IC50 is 0.699 µM (active).

Q: And the EC50 [7]?
A: The EC50 was 0.12 µM (active).

Q: What about the EC50 [8] of the same molecule?
A: The EC50 was > 60 µM (not active).

Q: And the AC50 [9]?
A: The AC50 was 3.9 µM (active).

Q: What about the AC50 [10] of the same molecule?
A: Its AC50 is 22 µM (active).

Q: And the AC50 [11]?
A: Its AC50 is 0.565 µM (active).

Q: What about the AC50 [12] of the same molecule?
A: The AC50 was 8.45 µM (active).

Q: What about the AC50 [13] of the same molecule?
A: Its AC50 is 26.7 µM (active).

Q: And the AC50 [14]?
A: Its AC50 is 3.16 µM (active).

Q: And the AC50 [15]?
A: Its AC50 is 21.2 µM (active).

Q: Which IC50 [16] does the source give for `O=C(CSc1nnc2scc(-c3ccccc3)n12)Nc1cccc(C(F)(F)F)c1` here?
A: Its IC50 is > 99 µM (inactive).

Q: What about the IC50 [17] of the same molecule?
A: The IC50 was > 99 µM (inactive).

Q: What does the source list for `CN1C=C/C(=C/c2ccc3ccccc3[n+]2C)c2ccccc21`?
A: EC50 [18]: 5.15 µM (active); IC50 [19]: 8.56 µM (active); IC50 [20]: 18 µM (active); IC50 [21]: 7.8 µM (active); IC50 [22]: 16.4 µM (active)
